Consider 7 compounds from ChEMBL document CHEMBL4342475, “Structure-Bioactivity Relationships of Lapatinib Derived Analogs against Schistosoma mansoni” (ACS Med Chem Lett, 2020).

Molecules are shown by their SMILES. Values after ≈ are worked out from the molar mass of the structure shown. Active and inactive are the calls of the source. No cut-off for these calls is given here. Bounds are passed on as bounds.

Usually solubility stands for the concentration that dissolves in the medium under given conditions. A low value points to a poorly soluble substance.

For the first series, the system named is Schistosoma mansoni. As to the kind of experiment: Antiparasitic activity against Schistosoma mansoni infected in Hamster assessed as severity score at 10 uM incubated for 48 hrs. Type of series: functional, organism-based.
Settings: not given
Regarding `CCCN1CCCN(c2ncc(-c3ccc4c(Nc5cnccn5)ccnc4c3C)cn2)CC1`, the outcome was Active.
On the same count and under the same terms, the entry for `Cc1c(-c2cnc(N3CCCNCC3)nc2)ccc2c(Nc3cnccn3)ccnc12` is “Active”.
Still for that read-out and setting: the entry for `Cc1cc2c(Nc3cnccn3)ccnc2cc1-c1cnc(N2CCCNCC2)nc1` is “inactive”.
As for `Cc1cc2c(Nc3cnccn3)ccnc2cc1-c1cnc(N2CCCN(C)CC2)nc1`, the outcome was Active.
On the same count and under the same terms, with `CCN1CCCN(c2ncc(-c3ccc4c(Nc5cnccn5)ccnc4c3C)cn2)CC1` the entry was “inactive”; with `CCCN1CCCN(c2ncc(-c3cc4nccc(Nc5cnccn5)c4cc3C)cn2)CC1`, “inactive”; with `CCN1CCCN(c2ncc(-c3cc4nccc(Nc5cnccn5)c4cc3C)cn2)CC1`, “Active”.

The next series relates to Schistosoma mansoni. Kind of series: Antiparasitic activity against Schistosoma mansoni infected in Hamster assessed as severity score at 10 uM incubated for 24 hrs.
Settings: not given
Type of series: functional, organism-based.
As to `CCCN1CCCN(c2ncc(-c3ccc4c(Nc5cnccn5)ccnc4c3C)cn2)CC1`, the result was Active.
Still for that read-out and setting: with `Cc1c(-c2cnc(N3CCCNCC3)nc2)ccc2c(Nc3cnccn3)ccnc12` the entry was “Active”; with `Cc1cc2c(Nc3cnccn3)ccnc2cc1-c1cnc(N2CCCNCC2)nc1`, “inactive”; with `Cc1cc2c(Nc3cnccn3)ccnc2cc1-c1cnc(N2CCCN(C)CC2)nc1`, “Active”.
Take `CCN1CCCN(c2ncc(-c3ccc4c(Nc5cnccn5)ccnc4c3C)cn2)CC1`: the result was inactive.
Consider `CCN1CCCN(c2ncc(-c3cc4nccc(Nc5cnccn5)c4cc3C)cn2)CC1`, for which the result was Active.

A further series deals with Schistosoma mansoni. As to the kind of experiment: Antiparasitic activity against Schistosoma mansoni infected in Hamster assessed as severity score at 10 uM incubated for 1 hr. Type of series: functional, organism-based.
Settings: not given
On to `CCCN1CCCN(c2ncc(-c3ccc4c(Nc5cnccn5)ccnc4c3C)cn2)CC1`, for which the result was inactive.
Same read-out and setting: the entry for `Cc1c(-c2cnc(N3CCCNCC3)nc2)ccc2c(Nc3cnccn3)ccnc12` is “inactive”; for `Cc1cc2c(Nc3cnccn3)ccnc2cc1-c1cnc(N2CCCNCC2)nc1` it is “inactive”; for `Cc1cc2c(Nc3cnccn3)ccnc2cc1-c1cnc(N2CCCN(C)CC2)nc1` it is “Active”.
Regarding `CCN1CCCN(c2ncc(-c3ccc4c(Nc5cnccn5)ccnc4c3C)cn2)CC1`, the result was inactive.

System in the next series: not listed separately
As to the kind of experiment: Protein binding in human plasma at 1 uM by LC-MS/MS analysis. The series is classed as ADME, cell-free.
Settings: not given
In the case of `CCCN1CCCN(c2ncc(-c3ccc4c(Nc5cnccn5)ccnc4c3C)cn2)CC1`, the PPB is on record as 94%.
Still for that read-out and setting: the figure for `Cc1c(-c2cnc(N3CCCNCC3)nc2)ccc2c(Nc3cnccn3)ccnc12` is 76%; for `Cc1cc2c(Nc3cnccn3)ccnc2cc1-c1cnc(N2CCCNCC2)nc1` it is 70%.
Same read-out and setting: the figure for `Cc1cc2c(Nc3cnccn3)ccnc2cc1-c1cnc(N2CCCN(C)CC2)nc1` is 82%; for `CCN1CCCN(c2ncc(-c3ccc4c(Nc5cnccn5)ccnc4c3C)cn2)CC1` it is 88%; for `CCCN1CCCN(c2ncc(-c3cc4nccc(Nc5cnccn5)c4cc3C)cn2)CC1` it is 88%.
The same measure, in the same setting: the figure for `CCN1CCCN(c2ncc(-c3cc4nccc(Nc5cnccn5)c4cc3C)cn2)CC1` is 84%.

System in the next series: not listed separately
As to the kind of experiment: Cytotoxicity against human HepG2 cells assessed as reduction in cell viability 48 hrs by MTT assay. The note with it: read-out: TC50. The series is classed as cell-based.
As to `CCCN1CCCN(c2ncc(-c3ccc4c(Nc5cnccn5)ccnc4c3C)cn2)CC1`, the CC50 at 48 h turned out to be 12 µM.
On the same count and under the same terms, with `Cc1c(-c2cnc(N3CCCNCC3)nc2)ccc2c(Nc3cnccn3)ccnc12` the figure was over 3.7 µM.
Take `Cc1cc2c(Nc3cnccn3)ccnc2cc1-c1cnc(N2CCCNCC2)nc1`: the CC50 at 48 h is 13 µM.
The same measure, in the same setting: with `Cc1cc2c(Nc3cnccn3)ccnc2cc1-c1cnc(N2CCCN(C)CC2)nc1` the figure was 7.6 µM.
Still for that read-out and setting: the figure for `CCN1CCCN(c2ncc(-c3ccc4c(Nc5cnccn5)ccnc4c3C)cn2)CC1` is 16 µM; for `CCCN1CCCN(c2ncc(-c3cc4nccc(Nc5cnccn5)c4cc3C)cn2)CC1` it is 7.6 µM; for `CCN1CCCN(c2ncc(-c3cc4nccc(Nc5cnccn5)c4cc3C)cn2)CC1` it is 4.7 µM.

System in a further series: not listed separately
Kind of series: Metabolic stability in human liver microsomes assessed as intrinsic clearance by LC-MS/MS analysis.
Settings: not given
The series is classed as ADME, Microsome.
For `CCCN1CCCN(c2ncc(-c3ccc4c(Nc5cnccn5)ccnc4c3C)cn2)CC1`, the intrinsic clearance was 300 µL/min/mg.
Same read-out and setting: the figure for `Cc1c(-c2cnc(N3CCCNCC3)nc2)ccc2c(Nc3cnccn3)ccnc12` is 41 µL/min/mg.
Same read-out and setting: the figure for `Cc1cc2c(Nc3cnccn3)ccnc2cc1-c1cnc(N2CCCNCC2)nc1` is 13 µL/min/mg.
Still for that read-out and setting: the figure for `Cc1cc2c(Nc3cnccn3)ccnc2cc1-c1cnc(N2CCCN(C)CC2)nc1` is 260 µL/min/mg.
In the case of `CCN1CCCN(c2ncc(-c3ccc4c(Nc5cnccn5)ccnc4c3C)cn2)CC1`, the intrinsic clearance amounted to 160 µL/min/mg.
Still for that read-out and setting: the figure for `CCCN1CCCN(c2ncc(-c3cc4nccc(Nc5cnccn5)c4cc3C)cn2)CC1` is 300 µL/min/mg; for `CCN1CCCN(c2ncc(-c3cc4nccc(Nc5cnccn5)c4cc3C)cn2)CC1` it is 300 µL/min/mg.

System in a further series: not listed separately
As to the kind of experiment: Aqueous solubility of compound incubated for 24 hrs by LC-MS/MS analysis. The series is classed as physicochemical. The note with it: buffer, 24 h.
The compound `CCCN1CCCN(c2ncc(-c3ccc4c(Nc5cnccn5)ccnc4c3C)cn2)CC1` showed a solubility of 450 µM (≈ 205 µg/mL).
Still for that read-out and setting: the figure for `Cc1c(-c2cnc(N3CCCNCC3)nc2)ccc2c(Nc3cnccn3)ccnc12` is 465 µM (≈ 192 µg/mL); for `Cc1cc2c(Nc3cnccn3)ccnc2cc1-c1cnc(N2CCCNCC2)nc1` it is 1000 µM (≈ 413 µg/mL).
The same measure, in the same setting: the figure for `Cc1cc2c(Nc3cnccn3)ccnc2cc1-c1cnc(N2CCCN(C)CC2)nc1` is 670 µM (≈ 286 µg/mL); for `CCN1CCCN(c2ncc(-c3ccc4c(Nc5cnccn5)ccnc4c3C)cn2)CC1` it is 580 µM (≈ 256 µg/mL); for `CCCN1CCCN(c2ncc(-c3cc4nccc(Nc5cnccn5)c4cc3C)cn2)CC1` it is 480 µM (≈ 218 µg/mL).
On the same count and under the same terms, with `CCN1CCCN(c2ncc(-c3cc4nccc(Nc5cnccn5)c4cc3C)cn2)CC1` the figure was 790 µM (≈ 348 µg/mL).

The next series concerns Schistosoma mansoni. Kind of series: Antiparasitic activity against Schistosoma mansoni infected in Hamster assessed as severity score at 10 uM incubated for 5 hrs.
Settings: not given
The series is classed as functional, organism-based.
In the case of `CCCN1CCCN(c2ncc(-c3ccc4c(Nc5cnccn5)ccnc4c3C)cn2)CC1`, the result was inactive.
The same measure, in the same setting: the entry for `Cc1c(-c2cnc(N3CCCNCC3)nc2)ccc2c(Nc3cnccn3)ccnc12` is “inactive”.
On the same count and under the same terms, the entry for `Cc1cc2c(Nc3cnccn3)ccnc2cc1-c1cnc(N2CCCNCC2)nc1` is “inactive”; for `Cc1cc2c(Nc3cnccn3)ccnc2cc1-c1cnc(N2CCCN(C)CC2)nc1` it is “Active”.
In the case of `CCN1CCCN(c2ncc(-c3ccc4c(Nc5cnccn5)ccnc4c3C)cn2)CC1`, the outcome was inactive.
Still for that read-out and setting: the entry for `CCCN1CCCN(c2ncc(-c3cc4nccc(Nc5cnccn5)c4cc3C)cn2)CC1` is “inactive”; for `CCN1CCCN(c2ncc(-c3cc4nccc(Nc5cnccn5)c4cc3C)cn2)CC1` it is “Active”.
